# Details: buffer; pH 7.4; 200.0 µM
row,SMILES,solubility kinetic [µg/mL]
1,COc1cc2c(cc1OC)CN(C(=O)CCN1C(=O)C3CCCCC3C1=O)CC2 (stereo unspecified),46.2
2,CCCCn1c(=S)[nH]c2ccc(N3CCOCC3)cc2c1=O,4.3
3,CC(=O)c1ccc(-n2c(CCC(=O)O)ccc2-c2ccccc2)cc1,41.5
4,COc1ccc(S(=O)(=O)NC(Cc2ccccc2)C(=O)O)cc1 (stereo unspecified),> 50.3
5,Cc1ccc(C)c(NC(=O)COC(=O)CC2CC3CCC2C3)c1 (stereo unspecified),20.4
6,O=C(O)c1cccnc1C(=O)c1ccccc1,31.9
7,Br.CC1=C(c2ccccc2)SC2=NCCN21,> 44.6
8,COc1cccc(NC(=O)c2nc(SC)ncc2Cl)c1,2.4
9,O=C(CN1CCCCCC1)Nc1c(Cl)cc(Cl)cc1Cl,42.1
10,Cc1cc(Br)ccc1NC(=O)CN(C)C(=O)C1=COCCO1,> 55.4
11,CCS(=O)(=O)N1CCC(C(=O)Oc2ccc(C)c(C)c2)CC1,38.5
12,O=C(COc1ccc2c(c1)OCO2)Nc1ccc(Cl)cn1,1.3
13,N#Cc1c(N)nc2c(c1-c1ccc(F)cc1)CCC2,3.7
14,CC(C)NC(=O)COc1cccc2ccccc12,31.8
15,O=C1/C(=C\c2ccc(Cl)cc2Cl)N2CCC1CC2,8.9
16,CN1c2ccccc2Sc2cc(N)ccc21,25.6
17,O=C(NCc1ccccc1)c1c(O)c2ccccc2[nH]c1=O,< 0.3
18,C1CNC(C23CC4CC(CC(C4)C2)C3)=N1,> 30.6
19,Cc1ccc(C(=O)NCCN2CCN(C(=O)c3ccc(C)c(C)c3)CC2)cc1C,53.1
20,Nc1c(Cl)nc(-c2ccccc2)nc1Cl,7.9
21,COc1ccc(/C=C2\SC(=O)N(CC(=O)Nc3cccc(C)c3)C2=O)cc1O,0.6
22,Oc1ccccc1Nc1nc(-c2ccccc2O)nc2ccccc12,< 0.2
23,N#C/C(=C\c1ccc(F)c(Br)c1)C(=O)NC1CC1,6.1
24,CC1CN(S(=O)(=O)c2ccc(C(=O)N(C)C3CCCCC3)cc2)CC(C)O1 (stereo unspecified),> 59.2
25,Cc1nc(SCC(=O)NC2CCCC2)[nH]c(=O)c1C,38.4

row,SMILES,solubility kinetic [µg/mL]
1,O=C(NCc1ccccc1)c1ccc(Cl)cc1,3.8
2,c1ccc(-c2nccc3ccccc23)cc1,7.3
3,CCOc1ccc(C(c2c(O)nc(SC)[nH]c2=O)c2c(O)nc(SC)[nH]c2=O)cc1,> 67.3
4,O=C(COC(=O)c1ccccc1Cl)NC1CCCCCC1,29.5
5,C=CCn1c(O)c(C(CC)=Nc2ccc3c(c2)CCC3)c(=O)[nH]c1=O,1.4
6,CN(Cc1nc(-c2cccs2)no1)CC(O)c1ccccc1 (stereo unspecified),42.8
7,CCOc1ccccc1NC(=O)Nc1ccc2c(c1)CCC2,< 0.3
8,Cc1ccc(CNC(=O)c2ccc(Cl)c(S(N)(=O)=O)c2)n1C,41.5
9,CC(=O)c1c(C)[nH]c(C(=O)OCc2csc(CC(=O)Nc3ccccc3C)n2)c1C,4.2
10,CCc1nc2ccccc2c(=O)n1-c1ccccc1OC,> 42
11,Cc1csc(Nc2nc(N)c(C(=O)Nc3ccccc3)o2)n1,3.3
12,CCCC(=O)C1=C(N(C)c2ccccc2)CC(C)(C)CC1=O,32.5
13,Cc1cc(C(=O)COC(=O)/C=C/c2cccc(F)c2)c(C)n1C,< 0.7
14,COC(=O)c1sccc1NC(=O)NC1CCCCC1,23.8
15,CCOc1ccc(N2C(=O)CNC2=S)cc1,> 35.4
16,CCCOc1ccc(N2C(=O)CC(NCC(=O)OCC)C2=O)cc1 (stereo unspecified),> 50.2
17,COc1ccccc1CCC(=O)NNC(=O)c1ccccc1,> 44.8
18,COc1ccccc1OCCNC(=O)C(=O)c1c[nH]c2ccccc12,37.2
19,CC(C)CC(C)NC(=O)c1ccc(C(F)(F)F)cc1 (stereo unspecified),4.9
20,CCc1sc(C(=O)N2CCN(C(=O)c3ccccc3)CC2)cc1C,> 51.4
21,COc1ccccc1C(=O)Nc1c[nH]c(=O)[nH]c1=O,3.4
22,Cl.O=[N+]([O-])c1cccc(CNCc2ccccc2)c1,40.2
23,Cc1ccc(C(=O)OCC(=O)N(C)c2ccccc2)cc1C,41.4
24,Cc1occc1C(=O)O/N=C(\N)c1ccccc1,36.1
25,Cc1onc(-c2ccccc2)c1CNS(=O)(=O)c1cccc(Cl)c1,36.5

row,SMILES,solubility kinetic [µg/mL]
1,O=C(NC(=S)N1CCOCC1)c1ccccc1Cl,> 42.7
2,CC(OC(=O)C1=COCCO1)C(=O)Nc1ccccc1C#N (stereo unspecified),38.8
3,Cc1ccccc1Nc1ccc2nonc2c1[N+](=O)[O-],0.8
4,CC1CCN(CCCNc2cc(NCCO)c([N+](=O)[O-])c3nonc23)CC1,> 56.8
5,COC(=O)/C=C/COc1ccccc1[N+](=O)[O-],17.9
6,O=C(Nc1ccc(Cl)cc1)Nc1ccc(-c2cnco2)cc1,0.7
7,CNC1=CC(=O)CC(c2ccccc2)C1 (stereo unspecified),> 30.2
8,O=C(COC(=O)c1cccc(F)c1)NC(=O)NCc1ccccc1,2.4
9,CCc1ccccc1N(C(C)=O)c1nc(CCl)cs1,> 44.2
10,OCCC1CCCCN1CC(O)COCc1ccc(Cl)cc1 (stereo unspecified),45.1
11,CCC(CC)c1nnc(NC(=O)c2cccc(S(=O)(=O)N3CCOCC3)c2)s1,> 63.7
12,Cn1c(SCC(=O)Nc2ccc(Cl)cc2)nc(O)cc1=O,> 48.9
13,CC(=O)c1ccc(OCC(C)Oc2ccc(C#N)cc2)cc1 (stereo unspecified),23.3
14,COc1ccc(CNc2nc3ccccc3n2C(C)C)cc1,5.7
15,COC(=O)[C@@H](NC(=O)NCCC1=CCCCC1)C(C)C,> 42.4
16,CCc1noc(C)c1C(=O)Nc1ccc(C#N)cc1,> 38.3
17,CCOC(=O)N1CCN(C(=O)C2CCN(C(=O)Nc3ccccc3)CC2)CC1,> 58.3
18,NC(=O)c1ccsc1NC(=O)COC(=O)CNC(=O)c1ccc(Cl)cc1,3.4
19,Cc1ccccc1OCc1nc2ccccc2n1C,3.1
20,O=C(O)COCc1nc2ccccc2s1,31.7
21,O=C(NCc1ccc2c(c1)OCO2)c1c(Cl)cccc1Cl,15
22,COc1ccc(Cl)cc1NC(=O)CN1c2ccccc2CC1C (stereo unspecified),2.2
23,CCOc1cc(C=O)ccc1OCc1cc(=O)n2cc(C)ccc2n1,4.4
24,Cc1ccc(C)c(NC(=O)CSc2nc(C)cs2)c1,39.9
25,O=C(/C=C/NCc1cccnc1)c1ccc(-c2ccccc2)cc1,2.8

row,SMILES,solubility kinetic [µg/mL]
1,O=C(Nc1cccc(C(F)(F)F)c1)c1cc[n+]([O-])cc1,> 42.3
2,O=C(CCCc1ccccc1)NCCc1ccc(F)cc1,39.6
3,Cc1cc(=O)[nH]c(-c2ccccc2OC(F)(F)F)n1,> 40.5
4,Cc1ccc(NC(=O)CCN2CC(C)OC(C)C2)cc1.Cl (stereo unspecified),> 46.9
5,O=C(CCN1C(=O)c2ccccc2C1=O)NCc1cccc(Cl)c1,32.4
6,Cc1ccc(S(=O)(=O)CC(O)COc2ccc(C#N)cc2)cc1 (stereo unspecified),> 49.7
7,CN(C)c1cccc2c(C#N)ccc(N(C)C)c12,< 0.2
8,O=C1c2cccc3c(O)ccc(c23)C(=O)N1c1ccc(Cl)cc1,16.2
9,Nc1nc(NCC2CCCO2)nc(Nc2cccc(F)c2)c1[N+](=O)[O-] (stereo unspecified),< 0.1
10,Cc1ccccc1CC1(CO)CCCN(C(=O)CCC(F)(F)F)C1 (stereo unspecified),48.3
11,Cn1c2c(c(=O)n(C)c1=O)C(c1cccc(F)c1)C(C#N)=C(N)O2 (stereo unspecified),45.5
12,CCC(=Nc1cccc(C(F)(F)F)c1)c1c(O)n(C)c(=O)n(C)c1=O,6.4
13,COc1ccc2oc(=N)c(C(=O)Nc3ccc(Cl)cc3)cc2c1,< 0.4
14,COc1cccc(NC(=O)C(=O)NCCCn2ccnc2)c1,42.2
15,N#Cc1ccc(C(CC(=O)O)N2Cc3ccccc3C2=O)cc1 (stereo unspecified),44
16,COC(=O)c1ccc(NC(=S)N2CCCC2)cc1,> 39.7
17,COc1ccc(Cl)cc1-c1csc(N)n1,34.1
18,CCC/C(O)=C1\C(=O)CC(C)(C)CC1=Nc1cccc([N+](=O)[O-])c1,42.6
19,O=C(CS(=O)(=O)c1ccccc1)Nc1ccc(Cl)cn1,> 46.6
20,O=C(NCCN1CCOCC1)c1c(O)nc2ccccn2c1=O,> 47.7
21,COc1cccc(C(=O)O/N=C(\N)c2ccccn2)c1OC,> 45.2
22,COc1cc(C)c(C)cc1S(=O)(=O)N1CCCc2ccccc21,4.9
23,O=C(Nc1cccnc1)c1cc(Cl)ccc1Cl,> 40.1
24,CC(=O)C1=C(C)NC2=C(C(=O)c3ccccc32)C1c1ccccc1 (stereo unspecified),0.8
25,CCOc1ccc(CCNC(=O)c2ccc(=O)[nH]c2)cc1OCC,> 49.6

row,SMILES,solubility kinetic [µg/mL]
1,COc1cccc(NC(=S)Nc2ccc(F)cc2)c1,28.7
2,O=C(Nc1ccccc1)OCc1cncs1,> 35.1
3,COc1ccccc1OCCC(=O)OCC(=O)Nc1ccc2c(c1)OCCO2,55.8
4,CCOC(=O)C1C(CC)NC(=S)NC1(C)O (stereo unspecified),35
5,O=C(Cn1c(=O)oc2ccccc21)Nc1ccc(Cl)cc1,1.8
6,O=C1CCc2ccccc2N1,15.9
7,O=C(Nc1ccon1)c1ccc(S(=O)(=O)N2CCOCC2)cc1,47.4
8,CC1NC(C)(C)Cc2c1ccc1ccccc21.Cl (stereo unspecified),37.6
9,OC(CNC1CCCCC1)C(F)(F)F (stereo unspecified),> 31.7
10,O=C1COc2ccc(S(=O)(=O)N3CCCCCC3)cc2N1,> 46.6
11,COc1ccc(-c2c(=O)n(OC)c3ccccc3[n+]2[O-])cc1OC,> 49.2
12,CCOc1ccccc1C(=O)N(C)CC(=O)Nc1ccc(OC)cc1,> 51.4
13,O=C(/C=C/c1ccccc1)Nc1cccnc1Oc1ccccc1F,2.7
14,O=C(NC(=S)Nc1ccccc1C(=O)O)c1cncc(Br)c1,> 57
15,O=C(O)C1CCCCC1C(=O)NC(c1ccccc1)c1ccccc1 (stereo unspecified),48.8
16,O=C1/C(=C/c2ccncc2)CCc2ccccc21,34.2
17,N#Cc1ccccc1NC(=O)CN1C(=O)NC2(CCCC2)C1=O,> 46.8
18,Cc1cc(C)nc(N2Cc3ccccc3C2=N)n1,> 35.7
19,CC(=O)c1cccc(NC(=O)CSc2nc3ccccc3c(=O)n2CCCN2CCOCC2)c1,> 72.1
20,O=C(O)c1ccc2c(=O)n3c(nc2c1)/C(=C/c1ccc(F)cc1)CC3,> 50.4
21,Cc1cccc(OC(C)C(=O)Nc2ccc(S(=O)(=O)N3CCCC3)cc2)c1 (stereo unspecified),16.4

# — PubChem BioAssay AID1996
